Data on two compounds can be found in publication PMC6467921, “Biosynthesis of DHGA12 and its roles in Arabidopsis seedling establishment” (Nature Communications, 2019).

A word on the Kd: it is the equilibrium constant for the complex coming apart. Low values mean a tighter complex, high ones a looser complex.

One test deals with T1, GID1c (Arabidopsis thaliana, UniProt Q940G6).
T1 construct: glutathione S-transferase (GST)-tagged GID1c
T1 sequence (Q940G6 2-344): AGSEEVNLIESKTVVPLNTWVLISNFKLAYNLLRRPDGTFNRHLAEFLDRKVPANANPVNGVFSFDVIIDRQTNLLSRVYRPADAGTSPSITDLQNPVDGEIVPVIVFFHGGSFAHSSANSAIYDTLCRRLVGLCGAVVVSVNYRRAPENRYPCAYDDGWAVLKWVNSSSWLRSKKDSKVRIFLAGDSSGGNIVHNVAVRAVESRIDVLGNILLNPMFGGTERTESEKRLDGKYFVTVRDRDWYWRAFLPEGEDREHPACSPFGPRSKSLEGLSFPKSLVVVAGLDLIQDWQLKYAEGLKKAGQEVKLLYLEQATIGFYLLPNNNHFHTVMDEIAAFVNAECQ
Nature of the test: microscale thermophoresis (MST), NT-647-labeled GST-GID1c. Type of test: binding. A general note: MST reads how a fluorescent partner responds to local heating, with and without ligand.

The target of the next test is T2, GAS2 (Arabidopsis thaliana, UniProt F4INZ9).
T2 construct: gene GIM2; recombinant purified GAS2
T2 sequence (F4INZ9 1-366): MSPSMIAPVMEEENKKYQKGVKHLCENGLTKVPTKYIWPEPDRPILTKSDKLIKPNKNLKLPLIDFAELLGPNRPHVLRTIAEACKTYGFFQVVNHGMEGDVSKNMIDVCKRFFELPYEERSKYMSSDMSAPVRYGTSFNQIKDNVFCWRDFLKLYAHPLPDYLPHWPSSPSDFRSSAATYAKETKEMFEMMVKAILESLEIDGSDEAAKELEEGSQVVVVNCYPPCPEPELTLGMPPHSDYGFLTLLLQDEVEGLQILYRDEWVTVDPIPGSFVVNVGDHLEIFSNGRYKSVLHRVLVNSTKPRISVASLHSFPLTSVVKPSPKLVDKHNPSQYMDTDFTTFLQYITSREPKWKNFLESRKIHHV
The test is described as follows: product of in vitro GAS2 reaction identified by LC-MS, compared with synthetic standard. Type of test: biochemical.

In the case of `C=C1C[C@]23C[C@H]1CC[C@H]2[C@@]12CC[C@H](O)[C@@](C)(C(=O)O1)[C@H]2[C@@H]3C(=O)O` [GA4], the Kd on GID1c stood at 680 ± 120 nM. `C[C@@]12CCC[C@@](C)(C(=O)O)[C@H]1[C@H](C(=O)O)[C@@]13C[C@@H](CC[C@@H]21)[C@](C)(O)C3` [DHGA12]: the “product of in vitro GAS2 reaction identified by LC-MS, compared with synthetic s” value at GAS2 is listed as “Our data demonstrate that GAS2 exhibits hydration activity using GA12 as a substrate to produce DHGA12”. Moreover, the Kd at GID1c was 1450 ± 250 nM.
